Results from patent US20130130992A1, “DIPEPTIDE DERIVATIVE FOR THE TREATMENT OF CANCER” (ONCOTEST GMBH, priority 2010, published 2013).

Experiments:
PAXF PANC 1 = experiment: Monolayer propidium iodide assay, PAXF PANC 1; type: cell-based; settings: Homo sapiens, 96 h; PAXF PANC 1, Pancreas; 4 days of treatment
Description: (§1) Oncotest GmbH, Germany's proprietary tumor cell line panel comprises 40 cell lines. These cell lines were derived from 15 different tumor histotypes, each represented by 1 to 6 different cell lines. Cell lines were established from cancer of the bladder (3), colon (4), head and neck (1), lung (6), breast (3), pancreas (3), prostate (4), ovary (2), kidney (3), liver (1), stomach (1) and the uteri body (1), as well as from melanoma (3), sarcoma (2) and pleuramesothelioma (3). Out of these 40 cell lines, 24 cell lines were established at Oncotest, from patient-derived tumor xenografts. […]
(§2) Stock solutions of the compound of formula (1) (3.3 mM in DMSO) were prepared and stored in small aliquots (200 μl) at −20° C. […] Each concentration was evaluated in triplicate. […]
(§3) Cells were plated in 96-well flat-bottom microtiter plates at a cell density of 4,000 to 20,000 cells/well. […] After an incubation period of 1-2 hours at room temperature, fluorescence (FU) was measured using the Cytofluor 4000 microplate reader (excitation λ=530 nm, emission λ=620 nm) to quantify the amount of attached viable cells. […] Based on the T/C values, relative IC50 values were determined by non-linear regression (log [conc. of inhibitor] versus response (% T/C)) using the GraphPad Prism® analysis software (Prism 5 for Windows, version 5.01, GraphPad Software Inc., CA). […]

[1] = Solubility (physical properties); type: physicochemical
SXF TE671 = experiment: Monolayer propidium iodide assay, SXF TE671; type: cell-based; settings: Homo sapiens, TE-671, 96 h; SXF TE671, Sarcoma; 4 days of treatment
Description: as §1, §2, §3

RXF 1781L = experiment: Monolayer propidium iodide assay, RXF 1781L; type: cell-based; settings: Homo sapiens, 96 h, Renal, 4 days of treatment
Description: as §1, §2, §3

CXF 269L = experiment: Monolayer propidium iodide assay, CXF 269L; type: cell-based; settings: Homo sapiens, 96 h, Colon, 4 days of treatment
Description: as §1, §2, §3

PXF 698L = experiment: Monolayer propidium iodide assay, PXF 698L; type: cell-based; settings: Homo sapiens, 96 h, Pleuramesothelioma, 4 days of treatment
Description: as §1, §2, §3

LXFA 289L = experiment: Monolayer propidium iodide assay, LXFA 289L; type: cell-based; settings: Homo sapiens, 96 h, Lung, 4 days of treatment
Description: as §1, §2, §3

MAXF MDA 231 = experiment: Monolayer propidium iodide assay, MAXF MDA 231; type: cell-based; settings: Homo sapiens, MDA-MB-231, 96 h; MAXF MDA 231, Mammary; 4 days of treatment
Description: as §1, §2, §3

PRXF 22RV1 = experiment: Monolayer propidium iodide assay, PRXF 22RV1; type: cell-based; settings: Homo sapiens, 96 h; PRXF 22RV1, Prostate; 4 days of treatment
Description: as §1, §2, §3

SXF SAOS2 = experiment: Monolayer propidium iodide assay, SXF SAOS2; type: cell-based; settings: Homo sapiens, SAOS-2, 96 h; SXF SAOS2, Sarcoma; 4 days of treatment
Description: as §1, §2, §3

LXFA 629L = experiment: Monolayer propidium iodide assay, LXFA 629L; type: cell-based; settings: Homo sapiens, 96 h, Lung, 4 days of treatment
Description: as §1, §2, §3

PRXF DU 145 = experiment: Monolayer propidium iodide assay, PRXF DU 145; type: cell-based; settings: Homo sapiens, 96 h; PRXF DU 145, Prostate; 4 days of treatment
Description: as §1, §2, §3

CXF RKO = experiment: Monolayer propidium iodide assay, CXF RKO; type: cell-based; settings: Homo sapiens, 96 h, Colon, 4 days of treatment
Description: as §1, §2, §3

CXF HT 29 = experiment: Monolayer propidium iodide assay, CXF HT 29; type: cell-based; settings: Homo sapiens, 96 h; CXF HT 29, Colon; 4 days of treatment
Description: as §1, §2, §3

CXF HCT 116 = experiment: Monolayer propidium iodide assay, CXF HCT 116; type: cell-based; settings: Homo sapiens, 96 h; CXF HCT 116, Colon; 4 days of treatment
Description: as §1, §2, §3

MAXF 401NL = experiment: Monolayer propidium iodide assay, MAXF 401NL; type: cell-based; settings: Homo sapiens, 96 h, Mammary, 4 days of treatment
Description: as §1, §2, §3

GXF 251 L = experiment: Monolayer propidium iodide assay, GXF 251 L; type: cell-based; settings: Homo sapiens, 96 h, Gastric, 4 days of treatment
Description: as §1, §2, §3

MAXF MCF 7 = experiment: Monolayer propidium iodide assay, MAXF MCF 7; type: cell-based; settings: Homo sapiens, MCF7, 96 h; MAXF MCF 7, Mammary; 4 days of treatment
Description: as §1, §2, §3

LXFL 529L = experiment: Monolayer propidium iodide assay, LXFL 529L; type: cell-based; settings: Homo sapiens, 96 h, Lung, 4 days of treatment
Description: as §1, §2, §3

BXF 1352L = experiment: Monolayer propidium iodide assay, BXF 1352L; type: cell-based; settings: Homo sapiens, 96 h, Bladder, 4 days of treatment
Description: as §1, §2, §3

MEXF 276L = experiment: Monolayer propidium iodide assay, MEXF 276L; type: cell-based; settings: Homo sapiens, MEXF276L, 96 h, Melanoma, 4 days of treatment
Description: as §1, §2, §3

LXFA 526L = experiment: Monolayer propidium iodide assay, LXFA 526L; type: cell-based; settings: Homo sapiens, 96 h, Lung, 4 days of treatment
Description: as §1, §2, §3

PAXF 1657L = experiment: Monolayer propidium iodide assay, PAXF 1657L; type: cell-based; settings: Homo sapiens, 96 h, Pancreas, 4 days of treatment
Description: as §1, §2, §3

PRXF LNCAP = experiment: Monolayer propidium iodide assay, PRXF LNCAP; type: cell-based; settings: Homo sapiens, 96 h, Prostate, 4 days of treatment
Description: as §1, §2, §3

HNXF CAL 27 = experiment: Monolayer propidium iodide assay, HNXF CAL 27; type: cell-based; settings: Homo sapiens, 96 h; HNXF CAL 27, Head and Neck; 4 days of treatment
Description: as §1, §2, §3

OVXF OVCAR3 = experiment: Monolayer propidium iodide assay, OVXF OVCAR3; type: cell-based; settings: Homo sapiens, OVCAR-3, 96 h; OVXF OVCAR3, Ovarian; 4 days of treatment
Description: as §1, §2, §3

SMILES: CCCC1CCCCCC(O)CC(=O)NC2CSSCC(NC2=O)C(=O)O1 (stereo not shown) [compound of formula (1)]
- IC50 (PAXF PANC 1): 59 nM
- Solubility ([1]; in chloroform and methanol): sparingly soluble in chloroform and methanol; and
- Solubility ([1]; in pyridine, acetic acid, dimethyl sulfoxide): Soluble in pyridine, acetic acid, dimethyl sulfoxide;
- Solubility ([1]; in water): insoluble in water
- IC50 (SXF TE671): 82 nM
- IC50 (RXF 1781L): 260 nM
- IC50 (CXF 269L): 55 nM
- IC50 (PXF 698L): 178 nM
- IC50 (LXFA 289L): 41 nM
- IC50 (MAXF MDA 231): 90 nM
- IC50 (PRXF 22RV1): 159 nM
- IC50 (SXF SAOS2): 185 nM
- IC50 (LXFA 629L): 40 nM
- IC50 (PRXF DU 145): 52 nM
- IC50 (CXF RKO): 74 nM
- IC50 (CXF HT 29): 137 nM
- IC50 (CXF HCT 116): 48 nM
- IC50 (MAXF 401NL): 64 nM
- IC50 (GXF 251 L): 93 nM
- IC50 (MAXF MCF 7): 276 nM
- IC50 (LXFL 529L): 50 nM
- IC50 (BXF 1352L): 103 nM
- IC50 (MEXF 276L): 90 nM
- IC50 (LXFA 526L): 21 nM
- IC50 (PAXF 1657L): 39 nM
- IC50 (PRXF LNCAP): 122 nM
- IC50 (HNXF CAL 27): 39 nM
- IC50 (OVXF OVCAR3): 195 nM
